Experimental data as given in patent publication US20180000085A1, “USE OF PICOLINAMIDE COMPOUNDS WITH FUNGICIDAL ACTIVITY” (DOW AGROSCIENCES LLC, priority 2014, published 2018).

Tests used:
[1] = tested on: Zymoseptoria tritici; test: Leaf blotch of wheat (SEPTTR) disease control on wheat seedlings; type: in vivo; set-up: key to SEPTTR 1DP, HV activity at 100 ppm (% control rating) / SEPTTR 3DC, HV activity at 100 ppm (% control rating) / SEPTTR disease control, 1DP / SEPTTR disease control, 3DC / SEPTTR 1DP disease control rating, HV activity / SEPTTR 3DC disease control rating, HV activity / SEPTTR 3DC, LV activity at 125.1 g/H (% Control rating) / SEPTTR 1DP, LV activity at 125.1 g/H (% Control rating) / SEPTTR 1DP disease control rating, LV activity at 125.1 g/H / SEPTTR 3DC disease control rating, LV activity at 125.1 g/H / SEPTTR 3DC disease control rating, HV activity at 100 ppm / SEPTTR 1DP disease control rating, HV activity at 100 ppm / HV activity at 100 ppm SEPTTR 3DC (disease control rating) / HV activity at 100 ppm SEPTTR 1DP (disease control rating) / LV activity at 125.1 g/H SEPTTR 1DP (disease control rating) / LV activity at 125.1 g/H SEPTTR 3DC (disease control rating): A: > 80; B: ≤ 80; C: Not Tested; D: No Activity Observed in the Reported Assay; details: wheat leaf blotch; for HV activity at 100 ppm SEPTTR 1DP (disease control rating) / HV activity at 100 ppm SEPTTR 3DC (disease control rating): HV application; for HV activity at 100 ppm SEPTTR 1DP (disease control rating) / LV activity at 125.1 g/H SEPTTR 1DP (disease control rating): 1 Day Protectant; for HV activity at 100 ppm SEPTTR 3DC (disease control rating) / LV activity at 125.1 g/H SEPTTR 3DC (disease control rating): 3 Day Curative; for LV activity at 125.1 g/H SEPTTR 1DP (disease control rating) / LV activity at 125.1 g/H SEPTTR 3DC (disease control rating): low volume application
[2] = tested on: Puccinia triticina; test: Wheat brown rust (PUCCRT) disease control on wheat seedlings; type: in vivo; details: wheat brown rust; for HV activity at 100 ppm PUCCRT 1DP (disease control rating) / HV activity at 100 ppm PUCCRT 3DC (disease control rating): HV application; for HV activity at 100 ppm PUCCRT 1DP (disease control rating) / LV activity at 125.1 g/H PUCCRT 1DP (disease control rating): 1 Day Protectant; for HV activity at 100 ppm PUCCRT 3DC (disease control rating) / LV activity at 125.1 g/H PUCCRT 3DC (disease control rating): 3 Day Curative; for LV activity at 125.1 g/H PUCCRT 1DP (disease control rating) / LV activity at 125.1 g/H PUCCRT 3DC (disease control rating): low volume application

Structure (SMILES)	HV activity at 100 ppm SEPTTR 1DP (disease control rating) [1]	HV activity at 100 ppm SEPTTR 3DC (disease control rating) [1]	HV activity at 100 ppm PUCCRT 1DP (disease control rating) [2]	HV activity at 100 ppm PUCCRT 3DC (disease control rating) [2]	LV activity at 125.1 g/H SEPTTR 1DP (disease control rating) [1]	LV activity at 125.1 g/H SEPTTR 3DC (disease control rating) [1]	LV activity at 125.1 g/H PUCCRT 1DP (disease control rating) [2]	LV activity at 125.1 g/H PUCCRT 3DC (disease control rating) [2]
COc1ccnc(C(=O)N[C@@H](C)C(=O)O[C@@H](C)[C@@H](CC(C)C)Oc2ccc(Cl)cc2)c1O [Cmpd 1047]	B (≤ 80)	A (> 80)	A (> 80)	A (> 80)				
COc1ccnc(C(=O)N[C@@H](C)C(=O)O[C@@H](C)[C@@H](CC(C)C)Oc2cccc(F)c2)c1O [Cmpd 1048]	B (≤ 80)	A (> 80)	A (> 80)	A (> 80)				
COc1ccnc(C(=O)N[C@@H](C)C(=O)O[C@@H](C)[C@@H](CC(C)C)Oc2cc(F)ccc2F)c1O [Cmpd 1049]	A (> 80)	B (≤ 80)	A (> 80)	A (> 80)				
COc1ccnc(C(=O)N[C@@H](C)C(=O)O[C@@H](C)[C@@H](CC(C)C)Oc2cccc(Cl)c2)c1O [Cmpd 1050]	A (> 80)	A (> 80)	A (> 80)	A (> 80)				
COc1ccnc(C(=O)N[C@@H](C)C(=O)O[C@@H](C)[C@@H](CC(C)C)Oc2ccc(C)cc2Cl)c1O [Cmpd 1051]	B (≤ 80)	D	A (> 80)	B (≤ 80)				
COc1cc(O[C@H](CC(C)C)[C@H](C)OC(=O)[C@H](C)NC(=O)c2nccc(OC)c2O)ccc1Cl [Cmpd 1052]	A (> 80)	A (> 80)	A (> 80)	A (> 80)				
COc1ccnc(C(=O)N[C@@H](C)C(=O)O[C@@H](C)[C@H](Oc2cccc(Cl)c2)C2CC2)c1OC(C)=O [Cmpd 1053]					B (≤ 80)	A (> 80)	A (> 80)	A (> 80)
CCC[C@@H](Oc1ccc(Cl)c(OC)c1)[C@H](C)OC(=O)[C@H](C)NC(=O)c1nccc(OC)c1OC(C)=O [Cmpd 1054]					B (≤ 80)	B (≤ 80)	A (> 80)	A (> 80)
COc1ccnc(C(=O)N[C@@H](C)C(=O)O[C@@H](C)[C@H](Oc2cccc(Cl)c2)C(C)(C)C)c1OC(C)=O [Cmpd 1055]					B (≤ 80)	A (> 80)	A (> 80)	A (> 80)
CCC[C@@H](Oc1cccc(Cl)c1)[C@H](C)OC(=O)[C@H](C)NC(=O)c1nccc(OC)c1OC(C)=O [Cmpd 1056]					A (> 80)	A (> 80)	A (> 80)	A (> 80)
CCC[C@@H](OCC1CC1)[C@H](C)OC(=O)[C@H](C)NC(=O)c1nccc(OC)c1OC(C)=O [Cmpd 1057]					B (≤ 80)	B (≤ 80)	B (≤ 80)	A (> 80)
COc1ccnc(C(=O)N[C@@H](C)C(=O)O[C@@H](C)[C@H](Oc2ccc(C)cc2)C2CC2)c1OC(C)=O [Cmpd 1058]					B (≤ 80)	B (≤ 80)	A (> 80)	A (> 80)
